pIC50: −log10 of the molar value.
Target: T1, hPR-B (Homo sapiens, UniProt P06401)
T1 construct: expressed in transfected cells
T1 sequence (P06401 1-933): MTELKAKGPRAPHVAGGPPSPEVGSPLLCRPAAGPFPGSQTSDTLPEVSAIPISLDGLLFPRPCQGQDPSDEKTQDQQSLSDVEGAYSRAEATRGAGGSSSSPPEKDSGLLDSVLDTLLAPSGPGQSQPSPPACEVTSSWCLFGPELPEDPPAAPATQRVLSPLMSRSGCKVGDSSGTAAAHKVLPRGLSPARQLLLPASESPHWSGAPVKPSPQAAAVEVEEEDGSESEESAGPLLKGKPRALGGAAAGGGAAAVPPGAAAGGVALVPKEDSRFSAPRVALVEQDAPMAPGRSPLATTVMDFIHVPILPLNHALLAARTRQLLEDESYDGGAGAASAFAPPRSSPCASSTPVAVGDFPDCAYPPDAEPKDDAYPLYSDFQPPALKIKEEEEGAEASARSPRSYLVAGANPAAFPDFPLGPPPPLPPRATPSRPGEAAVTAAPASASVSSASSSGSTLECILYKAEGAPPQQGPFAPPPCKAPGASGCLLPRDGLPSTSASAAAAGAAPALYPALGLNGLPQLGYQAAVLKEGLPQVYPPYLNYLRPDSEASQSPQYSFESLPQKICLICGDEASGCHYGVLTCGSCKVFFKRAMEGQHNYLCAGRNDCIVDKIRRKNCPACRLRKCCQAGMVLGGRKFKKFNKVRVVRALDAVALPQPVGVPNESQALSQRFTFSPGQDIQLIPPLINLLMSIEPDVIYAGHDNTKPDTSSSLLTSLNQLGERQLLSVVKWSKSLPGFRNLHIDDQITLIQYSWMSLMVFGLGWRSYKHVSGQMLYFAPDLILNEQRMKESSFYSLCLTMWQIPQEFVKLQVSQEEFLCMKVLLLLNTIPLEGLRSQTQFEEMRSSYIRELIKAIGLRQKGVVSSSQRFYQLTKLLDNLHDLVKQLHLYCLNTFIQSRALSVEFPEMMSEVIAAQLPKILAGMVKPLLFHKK
Experiment: Co-transfection assay, other nuclear receptors: hPR-B
Format: cell-based
Excerpt: An exemplary co-transfection assay is the luciferase reporter assay (Evans, Science 240: 889-895 (1988), Berger et al., J Steroid Biochem Mol Biol 41: 733-738 (1992)) can be used to establish the ability of a compound of formulae I, II or III to activate (agonist activity) or repress (antagonist activity) the ability of the human androgen receptor (hAR) to induce gene expression. A human cell line containing endogenously expressed hAR (e.g., MDA-MB-453 cells, derived from a human mammary carcinoma, American Tissue Type Culture Collection [ATCC] HTB 131) can be transfected with an androgen responsive luciferase reporter plasmid to measure the level of cross-reactivity of the compound on other nuclear receptors (such as the glucocorticoid receptor (GR), estrogen receptor (ER), mineralocorticoid receptor (MR), progesterone receptor (PR), retinoid receptor (RAR), retinoid X receptor (RXR), peroxisome proliferator activating receptors alpha (PPARα), gamma (PPARγ) and delta (PPARδ), liver X receptor (LXR), farnesyl X receptor (FXR) and the pregnane X receptor (PXR)). In the assay, luciferase reporter plasmids containing the cDNA for firefly luciferase (LUC) under the control of a conditional promoter containing hormone response elements recognized by the appropriate nuclear receptor are co-transfected into cells with the nuclear receptor expression plasmid. […]

N#Cc1ccc(N2CCC[C@@H]2[C@@H](O)C(F)(F)F)cc1C(F)(F)F [Compound 102, R,R-4-(2-(1-Hydroxyl-2,2,2-trifluoroethyl)-pyrrolidinyl)-2-trifluoromethyl-benzonitrile]
pIC50: 6.55 | antagonism of progesterone-induced activation of hPR-B (efficacy) (progesterone-induced activation): 74%

Reference: patent US11358931B2, “Selective androgen receptor modulators (SARMs) and uses thereof” (priority 2007, dated 2022)
